Experimental data from PMC10108740 (Journal of Medicinal Chemistry, 2023).

Legend:
in vitro [1] = conditions: human
[2] = test system: SARS-CoV-2 WA1 (USA-WA1/2020); test: Antiviral immunofluorescence assay, SARS-CoV-2 WA1 in Calu-3 cells; format: cell-based; conditions: for EC50: Severe acute respiratory syndrome coronavirus 2, Calu-3, WA1, Calu-3 cells, read-out: EC50; for EC50 / EC90: immunofluorescence, 44 hpi, mean ± SD; for EC90: Severe acute respiratory syndrome coronavirus 2, WA1, Calu-3 cells; for fold lower EC50 compared to V2043: Calu-3 and Huh7.5 cells; for fold more active than RDV: Calu-3 cells, based on EC50; for fold more active than 116-N1, the parent nucleoside of VV116: own EC50 compared with 116-N1 of ref 15
in vitro [3] = conditions: human; remark: listed apart in the source
SARS-CoV-2 (WA-1) [4] = test: Antiviral immunofluorescence assay, SARS-CoV-2 WA1 in Vero-TMPRSS2 cells; format: cell-based; conditions: for EC50: Severe acute respiratory syndrome coronavirus 2, Vero/TMPRSS2; for EC90: Severe acute respiratory syndrome coronavirus 2, WA-1, Vero-TMPRSS2 cells, immunofluorescence, 38 hpi
in vitro [5] = test: in vitro
Description: Cells were seeded as per SARS-CoV-2 infection studies in opaque walled 96-well cell culture plates and incubated overnight for Huh7.5 and Vero-TMPRSS2 cells and for an additional 24h for Calu-3 cells. Compounds or controls were added at the indicated concentrations. Cells were incubated for 48h for Huh7.5 cells, 40–44h for Calu-3 cells, or 30–32h for Vero-TMPRSS2 cells at 37 °C and 5% CO2, an equal volume of CellTiter-Glo reagent (Cat. #G7570, Promega) or CellTiter-Glo 2.0 reagent (Cat. #G9241, Promega) was added and mixed, and luminescence was recorded on a Veritas Microplate Luminometer (Turner BioSystems) according to manufacturer recommendations. Percent viability was calculated compared to DMSO controls, and CC50 values were calculated using Prism 9.
Calu-3 cells were treated for 44h (A), Huh7.5 cells were treated for 48h (B), and Vero-
TMPRSS2 cells were treated for 38h (C) as in infection assays for each cell type. Cell viability
was measured by CellTiter-Glo assay and reported as % cell viability relative to DMSO controls.
Best fit curves calculated in Graphpad Prism 9 were used
to compute cytotoxic concentration 50% (CC50) values in Tables 1-3.

SARS-CoV-2 (WA-1) [6] = test: Antiviral immunofluorescence assay, SARS-CoV-2 WA1 in Huh7.5 cells; format: cell-based; conditions: Severe acute respiratory syndrome coronavirus 2, WA-1, Huh7.5 cells, immunofluorescence, 48 hpi; for EC50: read-out: EC50; for EC90: read-out: EC90

Structure (SMILES) | CC50 at 44 h (in vitro [1]) [nM] | EC50 [2] [nM] | EC90 [2] [nM] | CC50 at 48 h (in vitro [3]) [nM] | EC50 (SARS-CoV-2 (WA-1) [4]) [nM] | EC90 (SARS-CoV-2 (WA-1) [4]) [nM] | CC50 (in vitro [5]; chlorocebus aethiops) [nM] | EC50 (SARS-CoV-2 (WA-1) [6]) [nM] | EC90 (SARS-CoV-2 (WA-1) [6]) [nM] | CC50 (in vitro [5]; African green monkey) [nM] | fold lower EC50 compared to V2043 [2] | fold more active than RDV [2] [fold] | fold more active than 116-N1, the parent nucleoside of VV116 [2] [fold]
CCCCCCCCCCCCCCCCCCOC[C@@H](COP(=O)(O)OC[C@H]1O[C@@](C#N)(c2ccc3c(N)ncnn23)[C@H](O)[C@@H]1O)OCc1ccccc1 [Compound 9b, ((2R,3S,4R,5R)-5-(4-Aminopyrrolo[2,1-f][1,2,4]triazin-7-yl)-5-cyano-3,4-dihydroxytetrahydrofuran-2-yl)methyl ((S)-2-(benzyloxy)-3-(octadecyloxy)propyl) hydrogen phosphate] | 93400 | 160 ± 24 | 625 ± 195 | – | – | – | – | – | – | – | – | – | –
CCCCCCCCCCCCCCCCCCOCC(COP(=O)(O)OC[C@H]1O[C@@](C#N)(c2ccc3c(N)ncnn23)[C@H](O)[C@@H]1O)OCc1ccccc1 (stereo partly drawn) [Compound 9c, ((2R,3S,4R,5R)-5-(4-aminopyrrolo[2,1-f][1,2,4]triazin-7-yl)-5-cyano-3,4-dihydroxytetrahydrofuran-2-yl)methyl ((R,S)-2-(benzyloxy)-3-(octadecyloxy)propyl) hydrogen phosphate] | 92100 | 172 ± 78 | 1070 ± 1040 | 64600 | 238 ± 74 | 613 ± 84 | > 100000 | 175 ± 120 | 519 ± 256 | – | – | – | –
CCCCCCCCCCCCCCCCCCOC[C@H](COP(=O)(O)OC[C@H]1O[C@@](C#N)(c2ccc3c(N)ncnn23)[C@H](O)[C@@H]1O)OCc1cccc(F)c1 [Compound 9d, ((2R,3S,4R,5R)-5-(4-Aminopyrrolo[2,1-f][1,2,4]triazin-7-yl)-5-cyano-3,4-dihydroxytetrahydrofuran-2-yl)methyl ((R)-2-((3-fluorobenzyl)oxy)-3-(octadecyloxy)propyl) hydrogen phosphate] | 94700 | 224 ± 129 | 506 ± 204 | 75000 | 271 ± 22 | 629 ± 61 | > 100000 | 191 ± 77 | 488 ± 199 | – | – | – | –
CCCCCCCCCCCCCCCCCCOC[C@H](COP(=O)(O)OC[C@H]1O[C@@](C#N)(c2ccc3c(N)ncnn23)[C@H](O)[C@@H]1O)OCc1cccc(C(F)(F)F)c1 [Compound 9e, ((2R,3S,4R,5R)-5-(4-Aminopyrrolo[2,1-f][1,2,4]triazin-7-yl)-5-cyano-3,4-dihydroxytetrahydrofuran-2-yl)methyl ((R)-3-(octadecyloxy)-2-((3-(trifluoromethyl)benzyl)oxy)propyl) hydrogen phosphate] | 66900 | 160 ± 93 | 316 ± 83 | – | – | – | – | – | – | – | – | – | –
CCCCCCCCCCCCCCCCCCOC[C@H](COP(=O)(O)OC[C@H]1O[C@@](C#N)(c2ccc3c(N)ncnn23)[C@H](O)[C@@H]1O)OCc1ccc(C(F)(F)F)cc1 [Compound 9f, ((2R,3S,4R,5R)-5-(4-Aminopyrrolo[2,1-f][1,2,4]triazin-7-yl)-5-cyano-3,4-dihydroxytetrahydrofuran-2-yl)methyl ((R)-3-(octadecyloxy)-2-((4-(trifluoromethyl)benzyl)oxy)propyl) hydrogen phosphate] | 90200 | 177 ± 12 | 408 ± 181 | – | – | – | – | – | – | – | – | – | –
CCCCCCCCCCCCCCCCCCOC[C@H](COP(=O)(O)OC[C@H]1O[C@@](C#N)(c2ccc3c(N)ncnn23)[C@H](O)[C@@H]1O)OCCCCCCCC [Compound 9h, ((2R,3S,4R,5R)-5-(4-Aminopyrrolo[2,1-f][1,2,4]triazin-7-yl)-5-cyano-3,4-dihydroxytetrahydrofuran-2-yl)methyl ((R)-3-(octadecyloxy)-2-(octyloxy)propyl) hydrogen phosphate] | > 100000 | 391 ± 39 | 2500 ± 1240 | > 100000 | 775 ± 245 | 1790 ± 140 | > 100000 | 564 ± 252 | 3360 ± 2860 | – | – | – | –
CCCCCCCCCCCCCCCCCCOC[C@H](COP(=O)(O)OC[C@H]1O[C@@](C#N)(c2ccc3c(N)ncnn23)[C@H](O)[C@@H]1O)OCCC1CCCCC1 [Compound 9i, ((2R,3S,4R,5R)-5-(4-Aminopyrrolo[2,1-f][1,2,4]triazin-7-yl)-5-cyano-3,4-dihydroxytetrahydrofuran-2-yl)methyl ((R)-2-(2-cyclohexylethoxy)-3-(octadecyloxy)propyl) hydrogen phosphate] | 98700 | 144 ± 20 | 1830 ± 1040 | 69800 | 296 ± 10 | 582 ± 14 | – | 92 ± 26 | 1310 ± 310 | > 100000 | – | – | –
CCCCCCCCCCCCCCCCCCOC[C@H](COP(=O)(O)OC[C@H]1O[C@@](C#N)(c2ccc3c(N)ncnn23)[C@H](O)[C@@H]1O)OCc1ccc(C#N)cc1 [Compound 9j, ((2R,3S,4R,5R)-5-(4-Aminopyrrolo[2,1-f][1,2,4]triazin-7-yl)-5-cyano-3,4-dihydroxytetrahydrofuran-2-yl)methyl ((R)-2-((4-cyanobenzyl)oxy)-3-(octadecyloxy)propyl) hydrogen phosphate] | 60200 | 43 ± 13 | 82 ± 22 | 47200 | – | – | – | 24 ± 2 | 70 ± 10 | – | 3–5.5 fold | 5.3 | 11.5
CCCCCCCCCCCCCCCCCCOC[C@H](COP(=O)(O)OC[C@H]1O[C@@](C#N)(c2ccc3c(N)ncnn23)[C@H](O)[C@@H]1O)OCc1cccc(C#N)c1 [Compound 9k, ((2R,3S,4R,5R)-5-(4-Aminopyrrolo[2,1-f][1,2,4]triazin-7-yl)-5-cyano-3,4-dihydroxytetrahydrofuran-2-yl)methyl ((R)-2-((3-cyanobenzyl)oxy)-3-(octadecyloxy)propyl) hydrogen phosphate] | 61600 | 34 ± 7 | 65 ± 36 | 49600 | – | – | – | 24 ± 6 | 77 ± 17 | – | 3–5.5 fold | 6.7 | 9.1
CCCCCCCCCCCCCCCCCCOC[C@H](COP(=O)(O)OC[C@H]1O[C@@](C#N)(c2ccc3c(N)ncnn23)[C@H](O)[C@@H]1O)OCc1ccccc1C#N [Compound 9l, ((2R,3S,4R,5R)-5-(4-Aminopyrrolo[2,1-f][1,2,4]triazin-7-yl)-5-cyano-3,4-dihydroxytetrahydrofuran-2-yl)methyl ((R)-2-((2-cyanobenzyl)oxy)-3-(octadecyloxy)propyl) hydrogen phosphate] | 82800 | 91 ± 25 | 186 ± 47 | > 100000 | – | – | – | 102 ± 17 | 281 ± 30 | – | – | – | –
CCCCCCCCCCCCCCCCOC[C@H](COP(=O)(O)OC[C@H]1O[C@@](C#N)(c2ccc3c(N)ncnn23)[C@H](O)[C@@H]1O)OCc1ccccc1 [Compound 11a, ((2R,3S,4R,5R)-5-(4-Aminopyrrolo[2,1-f][1,2,4]triazin-7-yl)-5-cyano-3,4-dihydroxytetrahydrofuran-2-yl)methyl ((R)-2-(benzyloxy)-3-(hexadecyloxy)propyl) hydrogen phosphate] | 88700 | 95 ± 12 | 716 ± 270 | > 100000 | 402 ± 84 | 798 ± 154 | > 100000 | 131 ± 66 | 268 ± 221 | – | – | – | –
